Source: the supplement of paper PMC10307832

Legend:
Assay in all cases: relative viability (nuclei count vs DMSO), 5 days (fraction); higher = more cells survive
[1] = tested on: HCC-366
Summary of the method: (§1)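 After 5 days of treatment, lung cancer cells in 1536-well plates were fixed and stained in a single step (final 0.05% Triton X-100, 1% formaldehyde, 1 ug/ml Hoechst) and their nuclei counted on 4× images. Treatment had been applied by pin tool the day after seeding as one drug alone or as a fixed anchor-drug dose with five library-drug doses (not always all listed) in √10 steps. Relative viability is the nuclei count of treated wells divided by that of vehicle wells, and values are medians of duplicate plates.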

[2] = tested on: NCI-H650
Summary of the method: as §1

[3] = tested on: COR-L23
Summary of the method: as §1

[4] = tested on: 201T
Summary of the method: as §1

[5] = tested on: NCI-H2085
Summary of the method: as §1

[6] = tested on: LU99A
Summary of the method: as §1

[7] = tested on: NCI-H23
Summary of the method: as §1

[8] = tested on: H3255
Summary of the method: as §1

[9] = tested on: SK-LU-1
Summary of the method: as §1

[10] = tested on: NCI-H1650
Summary of the method: as §1

[11] = tested on: NCI-H1651
Summary of the method: as §1

[12] = tested on: NCI-H358
Summary of the method: as §1

[13] = tested on: NCI-H3122
Summary of the method: as §1

[14] = tested on: NCI-H1755
Summary of the method: as §1

[15] = tested on: HCC-78
Summary of the method: as §1

[16] = tested on: NCI-H2087
Summary of the method: as §1

[17] = tested on: NCI-H460
Summary of the method: as §1

[18] = tested on: NCI-H1793
Summary of the method: as §1

[19] = tested on: PC-3 [JPC-3]
Summary of the method: as §1

[20] = tested on: NCI-H522
Summary of the method: as §1

[21] = tested on: HARA
Summary of the method: as §1

[22] = tested on: NCI-H322M
Summary of the method: as §1

Cc1csc(=NC2CCCCC2)n1/N=C/c1ccc(O)c(O)c1O [MIM1] + CC(=O)c1c(C)c2cnc(Nc3ccc(N4CCNCC4)cn3)nc2n(C2CCCC2)c1=O [Palbociclib] (partner 0.5 µM)
relative viability ([1]; first compound 0.2 µM): 0.384
relative viability ([1]; first compound 2 µM): 0.236
relative viability ([1]; first compound 6.325 µM): 0.127
relative viability ([1]; first compound 20 µM): 0.0225
relative viability ([2]; first compound 0.2 µM): 0.372
relative viability ([2]; first compound 0.6325 µM): 0.359
relative viability ([2]; first compound 2 µM): 0.317
relative viability ([2]; first compound 6.325 µM): 0.366
relative viability ([2]; first compound 20 µM): 0.159
relative viability ([3]; first compound 0.2 µM): 0.301
relative viability ([3]; first compound 0.6325 µM): 0.328
relative viability ([3]; first compound 2 µM): 0.258
relative viability ([3]; first compound 6.325 µM): 0.18
relative viability ([3]; first compound 20 µM): 0.138
relative viability ([4]; first compound 0.2 µM): 0.358
relative viability ([4]; first compound 0.6325 µM): 0.344
relative viability ([4]; first compound 2 µM): 0.36
relative viability ([4]; first compound 6.325 µM): 0.327
relative viability ([4]; first compound 20 µM): 0.339
relative viability ([5]; first compound 0.2 µM): 0.476
relative viability ([5]; first compound 0.6325 µM): 0.466
relative viability ([5]; first compound 2 µM): 0.461
relative viability ([5]; first compound 6.325 µM): 0.482
relative viability ([5]; first compound 20 µM): 0.537
relative viability ([6]; first compound 0.2 µM): 0.404
relative viability ([6]; first compound 0.6325 µM): 0.405
relative viability ([6]; first compound 2 µM): 0.38
relative viability ([6]; first compound 6.325 µM): 0.355
relative viability ([6]; first compound 20 µM): 0.159
relative viability ([7]; first compound 0.2 µM): 0.518
relative viability ([7]; first compound 0.6325 µM): 0.51
relative viability ([7]; first compound 2 µM): 0.413
relative viability ([7]; first compound 6.325 µM): 0.19
relative viability ([7]; first compound 20 µM): 0.194
relative viability ([8]; first compound 0.2 µM): 0.308
relative viability ([8]; first compound 0.6325 µM): 0.326
relative viability ([8]; first compound 2 µM): 0.31
relative viability ([8]; first compound 6.325 µM): 0.326
relative viability ([8]; first compound 20 µM): 0.243
relative viability ([9]; first compound 0.2 µM): 0.442
relative viability ([9]; first compound 0.6325 µM): 0.397
relative viability ([9]; first compound 2 µM): 0.368
relative viability ([9]; first compound 6.325 µM): 0.418
relative viability ([9]; first compound 20 µM): 0.307
relative viability ([10]; first compound 0.2 µM): 0.446
relative viability ([10]; first compound 0.6325 µM): 0.316
relative viability ([10]; first compound 2 µM): 0.256
relative viability ([10]; first compound 6.325 µM): 0.137
relative viability ([10]; first compound 20 µM): 0.136
relative viability ([11]; first compound 0.2 µM): 0.542
relative viability ([11]; first compound 0.6325 µM): 0.531
relative viability ([11]; first compound 2 µM): 0.521
relative viability ([11]; first compound 6.325 µM): 0.416
relative viability ([11]; first compound 20 µM): 0.541
relative viability ([12]; first compound 0.2 µM): 0.145
relative viability ([12]; first compound 0.6325 µM): 0.153
relative viability ([12]; first compound 2 µM): 0.122
relative viability ([12]; first compound 6.325 µM): 0.118
relative viability ([12]; first compound 20 µM): 0.128
relative viability ([13]; first compound 0.2 µM): 0.186
relative viability ([13]; first compound 0.6325 µM): 0.195
relative viability ([13]; first compound 2 µM): 0.174
relative viability ([13]; first compound 6.325 µM): 0.187
relative viability ([13]; first compound 20 µM): 0.124
relative viability ([14]; first compound 0.2 µM): 0.432
relative viability ([14]; first compound 0.6325 µM): 0.453
relative viability ([14]; first compound 2 µM): 0.431
relative viability ([14]; first compound 6.325 µM): 0.419
relative viability ([14]; first compound 20 µM): 0.306
relative viability ([15]; first compound 0.2 µM): 0.463
relative viability ([15]; first compound 2 µM): 0.494
relative viability ([15]; first compound 6.325 µM): 0.377
relative viability ([15]; first compound 20 µM): 0.402
relative viability ([16]; first compound 0.2 µM): 0.228
relative viability ([16]; first compound 0.6325 µM): 0.269
relative viability ([16]; first compound 2 µM): 0.24
relative viability ([16]; first compound 6.325 µM): 0.226
relative viability ([16]; first compound 20 µM): 0.206
relative viability ([17]; first compound 0.2 µM): 0.219
relative viability ([17]; first compound 0.6325 µM): 0.169
relative viability ([17]; first compound 2 µM): 0.106
relative viability ([17]; first compound 6.325 µM): 0.0475
relative viability ([17]; first compound 20 µM): 0.027
relative viability ([18]; first compound 0.2 µM): 0.317
relative viability ([18]; first compound 2 µM): 0.353
relative viability ([18]; first compound 6.325 µM): 0.29
relative viability ([18]; first compound 20 µM): 0.293
relative viability ([19]; first compound 0.2 µM): 0.544
relative viability ([19]; first compound 0.6325 µM): 0.538
relative viability ([19]; first compound 2 µM): 0.493
relative viability ([19]; first compound 6.325 µM): 0.446
relative viability ([19]; first compound 20 µM): 0.343
relative viability ([20]; first compound 0.2 µM): 0.819
relative viability ([20]; first compound 0.6325 µM): 0.921
relative viability ([20]; first compound 2 µM): 0.932
relative viability ([20]; first compound 6.325 µM): 1.13
relative viability ([20]; first compound 20 µM): 0.61
relative viability ([21]; first compound 0.2 µM): 0.253
relative viability ([21]; first compound 0.6325 µM): 0.302
relative viability ([21]; first compound 2 µM): 0.281
relative viability ([21]; first compound 6.325 µM): 0.251
relative viability ([21]; first compound 20 µM): 0.169
relative viability ([22]; first compound 0.2 µM): 0.466
relative viability ([22]; first compound 0.6325 µM): 0.466
relative viability ([22]; first compound 2 µM): 0.488
relative viability ([22]; first compound 6.325 µM): 0.459
relative viability ([22]; first compound 20 µM): 0.384
